The assay is described as follows: second harmonic imaging (SHI) of tetracaine binding to lipid bilayer array. The text has this: SH is a powerful tool for investigating small-molecule and protein interactions with membranes in a label-free manner. However, a high-throughput analog would be even more advantageous, akin to fluorescence imaging. Towards that end, SHI was implemented to measure the interactions between the local anesthetic tetracaine and a […] lipid bilayer array (MLBA) in a label-free manner allowing the effects of lipid phase and CHO content on tetracaine binding to be examined simultaneously.

Turning to `CCCCNc1ccc(C(=O)OCCN(C)C)cc1` [tetracaine], under “effect of phospholipid unsaturation and cholesterol content”, the maximum surface excess result is “increases with the degree of unsaturation of the phospholipids and decreases with cholesterol in the lipid bilayers”. Also, the “binding affinity to lipid phases” value (l.c. phase vs solid-gel phase lipids, label-free SHI) is “higher binding affinity to l.c. phase lipids than to solid-gel phase lipids”.

Source of the values: patent publication US11573233B2, “Systems and methods for label-free detection of analytes” (UNIVERSITY OF UTAH RESEARCH FOUNDATION, priority 2015, dated 2023).
